For the test, the target named is T1, glucagon-like peptide-1 receptor (GLP1R CHO-K1 Gs overexpressing cells) (Homo sapiens, UniProt P43220).
T1 construct: host or cells: CHO-K1
Put plainly: DiscoveRx cAMP Hunter express GPCR Assay (cellular cAMP formation). Particulars: 30 min at 37° C., cAMP chemiluminescent signal, four-parameter curve fitting. Format: cell-based. The protocol:
The activity of terminally modified PHF exendin conjugates were measured using DiscoveRx cAMP Hunter express GPCR Assay which determines the cellular formation of a second messenger such as cAMP. […] It binds to glucagon-like peptide-1 receptor 1-G-protein coupled receptor (GPCR). Following stimulation of this receptor, intracellular signaling pathways are activated that lead to the production of intracellular second messengers, such as cAMP. Free cAMP molecules from cell lysates compete for antibody binding with a labeled enzyme donor (ED)-cAMP conjugate, which contains a small peptide fragment of β-galactosidase. In the absence of free cAMP, the ED-cAMP conjugates are captured by the cAMP-specific antibody and are unavailable for complementation with the enzyme acceptor (EA), resulting in a low signal. In the presence of free cAMP, antibody sites are occupied, allowing the ED-cAMP conjugate to complement with EA, forming an active β-galactosidase enzyme; substrate hydrolysis by this enzyme produces a chemiluminescent signal. The signal generated is in direct proportion to the amount of free cAMP […]. […] Luminescent signal was measured using a SpectraMax M5 plate reader (Molecular Devices). […] EC50 values were determined from four-parameter curve fitting.

Here are results for one substance from patent US20170119896A1, “TERMINALLY MODIFIED POLYMERS AND CONJUGATES THEREOF” (Mersana Therapeutics, Inc., priority 2012, published 2017).

T1 sequence (P43220 24-463): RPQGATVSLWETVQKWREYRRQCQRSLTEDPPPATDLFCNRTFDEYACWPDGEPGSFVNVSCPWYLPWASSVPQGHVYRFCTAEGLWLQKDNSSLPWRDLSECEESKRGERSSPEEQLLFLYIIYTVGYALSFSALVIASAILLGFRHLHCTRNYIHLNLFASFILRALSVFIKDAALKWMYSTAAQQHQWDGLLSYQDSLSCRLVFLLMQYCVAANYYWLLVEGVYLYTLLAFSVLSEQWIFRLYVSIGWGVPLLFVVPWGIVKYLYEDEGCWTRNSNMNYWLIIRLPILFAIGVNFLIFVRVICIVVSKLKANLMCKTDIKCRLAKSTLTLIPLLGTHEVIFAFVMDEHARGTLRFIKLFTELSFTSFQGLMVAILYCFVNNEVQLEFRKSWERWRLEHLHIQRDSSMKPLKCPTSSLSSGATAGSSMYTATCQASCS

For the substance “50 kDa PHF-6-maleimido hexanamide-Exendin-4-Cys (i.e., (Exendin-4-Cys)-(N-(2-maleimido)propanamido)propyl)-ethylamino-50 kDa PHF) [Example 15]”, a half-maximal effect (EC50) was put at 1.87 nM.
